Reference: patent publication US12508280B2, “Formulations for improving gut health” (DSM IP ASSETS B.V., priority 2018, dated 2025)

Experiments:
[1] = test system: fecal suspension from the selected donor; experiment: Intestinal batch fermentation, SCFA production (first set); type: cell-based, human; conditions: 5× dose; after 48 h fermentation; vs corresponding control
Description: In a first set of in vitro experiments at the start of intestinal batch fermentation incubation, all test ingredients were added from stock solutions to the modified nutritional medium, containing (g/l): 2.5 K2HPO4, 10.9 KH2PO4, 2 NaHCO3, 2 yeast extract, 2 peptone, 1 mucin, 0.5 cysteine, 2 Tween 80, 2 glucose, 2 starch, 2 cellobiose, 0.1 NaCl, 0.01 MgSO4·7H2O, 0.01 CaCl2·6H2O, 0.05 hemin, 0.5 bile salts.
The other compounds were prepared in ethanol: • Vitamin K1 (VK1), • MEG-3 0080 EE Oil (MEG-3 0080 EE), • MEG-3 4535 EE Oil (MEG-3 4535 EE), • MEG-3 8000 EE Oil (MEG-3 8000 EE).
(§1) Since ethanol is known to have antimicrobial effects, two blanks for each type of stock solution were included. As a source of the microbial community, a freshly prepared fecal suspension from the selected donor was added to the reactors. […] All tests, except the blanks, were performed in single repetition, resulting in 40 independent incubations, as specified in Table 1. Incubation conditions of the pre-screening experiment and the final experiment were 48 h at 37° C., under shaking (90 rpm) and anaerobic conditions. DNA were extracted from effluent samples collected from each fermentation flask before (0 h fermentation) and after fermentation (24 h fermentation) and use for microbiome composition analysis by Shotgun sequencing. Effluent samples were collected from each fermentation flask before (0 h fermentation) and after fermentation (48 h fermentation), sterilized by filtering through 0.22 μm filters and used for short chain fatty acids (SCFA), quantification of immunological biomarkers and in vitro analysis in cell culture systems.
Short chain fatty acids (SCFA) are an assessment of the microbial carbohydrate metabolism (acetate, propionate and butyrate) or protein metabolism (branched SCFA) and can be compared to typical fermentation patterns for normal GI microbiota. Samples for SCFA analysis were analyzed after 0, 6, 24 and 48 h of incubation for both set of in vitro experiments, above.
SCFA were extracted from the samples with diethyl ether, after the addition of 2-methyl hexanoic acid as an internal standard. Extracts were analysed using a GC-2014 gas chromatograph (Shimadzu's-Hertogenbosch, the Nether-lands), equipped with a capillary fatty acid-free EC-1000Econo-Cap column (dimensions: […]×0.53 mm, film thickness […]; Alltech, Laarne, Belgium), a flame ionization detector and a split injector. The injection volume was […] and the temperature profile was set from 110 to 160° C., with a temperature increase of 6° C. min-1. The carrier gas was nitrogen and the temperature of the injector and detector were […] and 220° C., respectively. The production of unbranched and branched SCFA was calculated by summing the molar concentrations of acetate, propionate, butyrate, valerate and caproate, and summing isobutyrate, isovalerate and isocaproate molar concentrations, respectively. The total SCFA production was defined as the sum of unbranched and branched SCFA.

[2] = test system: fecal microbial community; experiment: Microbiome composition by shotgun sequencing: alpha diversity (first set); type: cell-based, human; conditions: after 24 h fermentation, vs corresponding control
Description: as §1
(§2) For the first set of in vitro experiments, total DNA was extracted from all samples collected throughout the study using the QIAamp DNA stool minikit (Qiagen, Crawley, United Kingdom) according to the manufacturer's instructions, apart from addition of a bead-beating step and increasing the lysis temperature to 95° C. as described previously (McCormack et al., 2018).
(§3) After DNA isolation, DNA was quantified using the Qubit High Sensitivity DNA assay (Thermo Fisher). Whole metagenome libraries were then prepared using the Illumina Nextera XT kit (Illumina) in accordance with the manufacturer's instructions, with the following modifications: Firstly, tagmentation time was increased to 7 min and secondly, following incorporation of indices and Ampure purification of the products, the samples were each individually sized by running on an Agilent High Sensitivity Chip (Agilent) and quantified using the Qubit High Sensitivity DNA assay (Thermo Fisher) in accordance with Teagasc Sequencing Platform SOPs. The samples were then pooled equimolarly and sequenced on the Illumina NextSeq 500 with a NextSeq 500/550 v2 high-output reagent kit (300 cycles). All sequencing was done in the Teagasc sequencing facility in accordance with standard Illumina sequencing protocols.
(§4) Delivered raw FASTQ sequence files were quality checked as follows: poor quality and duplicate read removal, as well as trimming was implemented using a combination of SAM and Picard tools. Taxonomy was assigned to the reads using the Kraken software and functional analysis was performed with Super focus.

Bifidobacterium = experiment: Microbiome composition by shotgun sequencing: Bifidobacterium (first set); type: cell-based, human; conditions: after 24 h fermentation, vs corresponding control
Description: as §1, §2, §3, §4

[3] = test system: Co-cultures of Caco-2 and HT29-MTX-E12 cells; experiment: Barrier integrity (TEER), healthy gut model; type: cell-based; conditions: 48 h minus 0 h fermentation samples, vs corresponding control
Description: (§5) Co-cultures of Caco-2 and HT29-MTX-E12 cells were used to assess the protective effect of the supernatants before (0 h) and after fermentation (48 h) for both sets of in vitro experiments above.
(§6) CaCo-2 ECACC 86010202 and HT29-MTX-E12 ECACC 12040401 cells (both from European Collection of Cell Cultures, Salisbury, UK) were both cultured at 37° C., in atmosphere of 5% CO2 in DMEM medium supplemented with 4.5 g/L D-Glucose, 4 mM L-Glutamine, 1 mM Sodium Pyruvate, 1% MEM Non-Essential Amino Acids, 50 μg/mL Gentamicin (Life Technologies Europe B.V., Zug, Switzerland) and 10% heat-inactivated FBS (Sigma-Aldrich, Buchs, Switzerland). Sub-confluent cells were trypsinized using 0.25% Trypsin/EDTA (Life Technologies Europe B.V., Zug, Switzerland) and passaged at a ratio of 1:5-1:10 twice a week. Cells between passages 55 and 85 were used for this study.
(§7) Cells were seeded at a density of 20000 cells/well in a 7:3 ratio (Caco-2:HT29-MTX-E12) in Corning HTS Transwell-24 system PET membranes, 0.4 μM pore size, cell growth area 0.33 cm2/well (Corning BV, Amsterdam, Netherlands) and cultured as described above. Media was changed every second to third day.
For both sets of in vitro experiments, after cells being 13 days in culture, initial transepithelial electrical resistance (TEER) readings were obtained using an EVOM2 Voltohmmeter (EVOM, World Precision Instruments, Berlin) equipped with STX100 Electrodes. TEER values correlate with the tightness of the confluent monolayer (Srinivasan et al. 2015).
The background TEER (insert) was subtracted from total TEER (cell monolayer plus insert) to yield the monolayer resistance and then normalized to surface area by multiplying with the area of the insert (Srinivasan et al. 2015). The integrity of the monolayer was determined at basal level by measuring TEER. A TEER of 300 Ωcm2 was regarded as a tight monolayer (see results section). Afterwards, the cells were treated with sterile filtered fermentation supernatants or fermentation medium as a control (diluted 1:20 in growth media). After 24 h incubation the resistance across each cell monolayer was measured again and the percentage change in TEER compared to initial TEER for each insert was calculated to represent a healthy gut model. All TEER measurements were done by placing the plates containing the inserts on a 37° C. warming plate and were performed in the same duration.

HT29 cells = experiment: HT29 cell culture, quantification of immunological biomarkers; type: cell-based; conditions: 5× dose; effluent from 24 h fermentation; vs corresponding control
Description: as §1, with “([…]), […]” for “(0 h fermentation) and after fermentation (48 h fermentation), sterilized by filtering through 0.22 μm filters and used for short chain fatty acids (SCFA), quantification of immunological biomarkers and in vitro analysis in”
For both sets of in vitro experiments, HT29 cells were obtained from American Type Culture Collection (Manassas, VA). Cells were cultured in DMEM supplemented with 10% fetal bovine serum (FBS), 50 units/ml penicillin, 50 μg/ml streptomycin, L-glutamine, and nonessential amino acids (Life Technologies Europe B.V., Zug, Switzerland). Cells were seeded into 12-well plates at 8×10^5 cells per well and used after 2 days of preculture. They were starved in DMEM containing 0.25% FBS for 18 h before treatment. Cells were treated for 24 hours with TNF-α at 100 ng/mL or fermentation supernatants which were sterile filtered and diluted 1:20 in DMEM containing 0.25% FBS. All treatments were done in triplicate. Consequently, cytokines, chemokines and interleukins were quantified in HT29 supernatants using the Luminex Technology (LiquiChip Workstation IS 200, Qiagen, Hilden, Germany) with Bio-Plex Pro Human Cytokine Panel kits (Bio-Rad, Hercules, CA) or with Luminex Screening Assay kits (R&D Systems, Inc., Minneapolis, MN), following the manufacturer's instructions. The data were acquired with the Luminex IS 2.3 software and evaluated with the LiquiChip Analyser software (Qiagen, Hilden, Germany).

[4] = test system: Co-cultures of Caco-2 and HT29-MTX-E12 cells; experiment: Barrier integrity, leaky gut model, apical stressor Rhamnolipids; type: cell-based; conditions: vs corresponding control; for Lucifer yellow, apical induction of leaky gut cellular model: 48 h fermentation samples; for TEER, apical induction of leaky gut cellular model: 48 h minus 0 h fermentation samples
Description: Since ethanol is known to have antimicrobial effects, two blanks for each type of stock solution were included. As a source of the microbial community, a freshly prepared fecal suspension from the selected donor was added to the reactors. […] All tests, except the blanks, were performed in single repetition, resulting in 40 independent incubations, as specified in Table 1. Incubation conditions of the pre-screening experiment and the final experiment were 48 h at 37° C., under shaking (90 rpm) and anaerobic conditions. […] Effluent samples were collected from each fermentation flask before (0 h fermentation) and after fermentation (48 h fermentation), sterilized by filtering through 0.22 μm filters and used for short chain fatty acids (SCFA), quantification of immunological biomarkers and in vitro analysis in cell culture systems.
as §5, §6, §7
For both sets of in vitro experiments, the integrity of cell monolayers after the stressor test was evaluated by both TEER values and by measuring the transport of Lucifer yellow from apical to basolateral compartments (Leaky gut model). A prewarmed HBSS transport buffer composed of Hank's Balanced Salt Solution pH 7.4 with Ca2+ and Mg2+, containing 5.5 mM D-(+)-glucose, Sodium Bicarbonate, and supplemented with 4 mM L-glutamine, 20 mM HEPES (Life Technologies Europe B.V., Zug, Switzerland) was used for all permeability experiments. The inserts were rinsed twice with HBSS using a reservoir tray, 100 μl HBSS were then added to the apical site of the inserts and subsequently moved to new wells with fresh HBSS and allowed to equilibrate at 37° C. for 60 min in the incubator followed by TEER measurement to obtain baseline resistance readings.
Lucifer Yellow CH dilithium salt (Sigma-Aldrich, Buchs, Switzerland) was dissolved in HBSS at a final concentration of 100 μg/ml. Basolateral stressor EtOH (Merck, KgaA, Darmstadt, Germany) was diluted to 5% in HBSS. Apical Stressor Rhamnolipids R90 (AGAE Technologies, Corvallis, USA) was dissolved in HBSS containing Lucifer Yellow at a final concentration of 350 μg/ml. All solutions were prepared freshly each time.
The HBSS transport buffer from the basolateral chamber was aspirated first, then the HBSS from the apical chamber and replaced with Lucifer yellow solution. For the apical stressor test, Lucifer yellow solution containing 350 μg/ml Rhamnolipids or Lucifer yellow solution without stressor for the control wells was loaded into the apical compartment, blank HBSS was subsequently added to the basolateral chamber.

[5] = test system: genes involved in Acetyl-CoA fermentation to Butyrate pathway; experiment: Shotgun sequencing functional analysis: butyrate pathway genes (first set); type: cell-based, human; conditions: after 24 h fermentation, vs corresponding control
Description: as §1, §2, §3, §4

[6] = test system: fecal suspension from the selected donor; experiment: Gas production in closed colon incubations (first set); type: cell-based, human; conditions: after 48 h fermentation, vs corresponding control
Description: The colon incubations were performed in closed incubation systems. This allowed us to evaluate the accumulation of gasses in the headspace, which can be measured with a pressure meter. Gas production is a measure of microbial activity, and thus of the speed of fermentation of the potentially prebiotic substrates. It can be used as an indication for bloating and digestive wellbeing upon prebiotic consumption.
as §1
For both sets of in vitro experiments, colon incubations were performed in closed incubation systems as described above. This allowed to evaluate the accumulation of gasses in the headspace, which can be measured with a pressure meter. Gas production is a measure of microbial activity, and thus of the speed of fermentation of the potentially prebiotic substrates

| SMILES | butyrate production [1] | microbiome alpha diversity (Shannon diversity index) ([2]; 0.2× dose) | microbiome alpha diversity (Shannon diversity index) ([2]; 1× dose) | Bifidobacterium relative abundance (Bifidobacterium; 0.2× dose) | Bifidobacterium relative abundance (Bifidobacterium; 1× dose) | TEER, healthy gut cellular model ([3]; 0.2× dose) | IL-8 production by HT29 cells (HT29 cells) | Lucifer yellow, apical induction of leaky gut cellular model ([4]; 0.2× dose) | TEER, apical induction of leaky gut cellular model ([4]; 0.2× dose) | relative abundance of genes involved in Acetyl-CoA fermentation to Butyrate pathway ([5]; 0.2× dose) | relative abundance of genes involved in Acetyl-CoA fermentation to Butyrate pathway ([5]; 1× dose) | microbiome alpha diversity (Shannon diversity index) ([2]; 5× dose) | TEER, healthy gut cellular model ([3]; 1× dose) | Lucifer yellow, apical induction of leaky gut cellular model ([4]; 1× dose) | TEER, apical induction of leaky gut cellular model ([4]; 1× dose) | relative abundance of genes involved in Acetyl-CoA fermentation to Butyrate pathway ([5]; 5× dose) | gas production ([6]; 1× dose) | gas production ([6]; 5× dose) |
| --- | --- | --- | --- | --- | --- | --- | --- | --- | --- | --- | --- | --- | --- | --- | --- | --- | --- | --- |
| Cc1cc2nc3c(=O)[nH]c(=O)nc-3n(C[C@H](O)[C@H](O)[C@H](O)COP(=O)(O)O)c2cc1C [Vitamin B2-5-phosphate, Riboflavin-5-phosphate] | increase butyrate production | increase microbiome diversity | increase microbiome diversity | increase Bifidobacterium relative abundance | increase Bifidobacterium relative abundance | increase TEER | increase IL-8 production | decrease Lucifer yellow | increase TEER | increase relative abundance | increase relative abundance |  |  |  |  |  |  |  |
| O=C1O[C@H]([C@@H](O)CO)C(O)=C1O [Vitamin C, Ascorbic acid] |  |  |  |  | increase Bifidobacterium relative abundance |  |  | decrease Lucifer yellow | increase TEER |  |  | increase microbiome diversity | increase TEER | decrease Lucifer yellow | increase TEER | increase relative abundance | reduced gas production | reduced gas production |
